For data set [1] the following is noted: cited from earlier work.
The test system of data set [2] is carbapenemase-producing E. coli strains. The data set can be described thus: Colistin MIC by broth microdilution (BMD), CLSI/EUCAST. The class given is cell-based, Escherichia coli.

Turning to `C1CCCCC1` [cyclohexane], the Solubility in water in data set [1] is listed as below 0.1 g/100 g.

As for `CN(C)P(N(C)C)N(C)C` [Hexamethyl-phosphorous triamide (HMPT), Hexamethylphosphorous triamide], in data set [1], the Solubility in water result is given as “Miscible”.

In the case of `CCOC(C)=O` [ethyl acetate], the Solubility in water in data set [1] was 8.7 g/100 g.

With `CN1CCCC1=O` [N-methyl-2-pyrrolidinone (NMP), N-methyl-2-pyrrolidinone], the Solubility in water in data set [1] is listed as 10 g/100 g.

As to `Clc1ccccc1` [chlorobenzene], the Solubility in water in data set [1] is 0.05 g/100 g.

Regarding `COCCOC` [1,2-dimethoxy-ethane (glyme, DME), 1,2-dimethoxy-ethane], the Solubility in water result in data set [1] was “Miscible”.

Consider `OCC(O)CO` [glycerin], for which, in data set [1], the Solubility in water result is listed as “Miscible”.

Turning to `C[S+](C)[O-]` [dimethyl sulfoxide (DMSO), dimethyl sulfoxide], in data set [1], the Solubility in water is on record as 25.3 g/100 g.

With `CC(C)O` [2-propanol], the Solubility in water result in data set [1] is recorded as “Miscible”.

On to `CCO` [ethanol], for which, in data set [1], the Solubility in water result is reported as “Miscible”.

For `COCCOCCOC` [diethylene glycol dimethyl ether], in data set [1], the Solubility in water entry is recorded as “Miscible”.

As for `CCCCCC` [hexane], the Solubility in water in data set [1] is 0.014 g/100 g.

On to Colistin (Polymyxin E), for which the “Colistin MIC” value worked out at 0.25 µg/mL in data set [2] (KPC-2 producing E. coli, N=1, mcr-1/-2 PCR negative); 0.25 µg/mL in data set [2] (KPC-3 producing E. coli, N=1, mcr-1/-2 PCR negative); 0.5 µg/mL in data set [2] (NDM-1 producing E. coli, N=1, mcr-1/-2 PCR negative); 4 µg/mL in data set [2] (NDM-1 producing E. coli, N=1, mcr-1 PCR positive, PRR 1.73 ± 0.23); 4 µg/mL in data set [2] (NDM-1 producing E. coli, N=1, mcr-1 PCR positive, PRR 2.34 ± 0.12); 0.25 µg/mL in data set [2] (NDM-1 producing E. coli, N=3, mcr-1/-2 PCR negative). Also, the “Colistin MIC” value in data set [2] (NDM-5 producing E. coli, N=2, mcr-1/-2 PCR negative) amounted to 0.25 µg/mL; in data set [2] (NDM-5 producing E. coli, N=3, mcr-1/-2 PCR negative) it was 0.5 µg/mL; in data set [2] (OXA-48 producing E. coli, N=1, mcr-1/-2 PCR negative), 1 µg/mL; in data set [2] (OXA-48 producing E. coli, N=1, mcr-1 PCR positive, PRR 1.29 ± 0.63) it was 4 µg/mL; in data set [2] (OXA-48 producing E. coli, N=26, mcr-1/-2 PCR negative), 0.5 µg/mL; in data set [2] (OXA-48 producing E. coli, N=27, mcr-1/-2 PCR negative), 0.25 µg/mL. Moreover, the “Colistin MIC” value was 0.25 µg/mL in data set [2] (OXA-181 + NDM-5 producing E. coli, N=1, mcr-1/-2 PCR negative); 0.25 µg/mL in data set [2] (OXA-181 producing E. coli, N=4, mcr-1/-2 PCR negative); 0.25 µg/mL in data set [2] (OXA-204 producing E. coli, N=1, mcr-1/-2 PCR negative); 0.25 µg/mL in data set [2] (OXA-244 producing E. coli, N=1 (first line), mcr-1/-2 PCR negative); 0.5 µg/mL in data set [2] (OXA-244 producing E. coli, N=1 (second line), mcr-1/-2 PCR negative); 0.5 µg/mL in data set [2] (VIM-1 producing E. coli, N=1, mcr-1/-2 PCR negative). Further, the “Colistin MIC” value in data set [2] (VIM-4 producing E. coli, N=1, mcr-1/-2 PCR negative) amounted to 0.25 µg/mL. Besides, in data set [2] (two NDM-1 and one OXA-48 producer, resistant to colistin, positive for the mcr-1 gene), the MICs of colistin was found to be 4 mg/L.

Values taken from US12545944B2, “Method of detection” (priority 2017, dated 2026).
